This passage reports IC50 results from ChEMBL document CHEMBL5634134, “Design, synthesis, and biological evaluation of novel 4,4'-bipyridine derivatives acting as CDK9-Cyclin T1 protein-protein interaction inhibitors against triple-negative breast cancer” (Eur J Med Chem, 2023).

Series [1] is described as follows: Cytotoxicity against human MCF-10A cells assessed as inhibition of cell growth by MTT assay. It is filed as toxicity, cell-based. In general terms: Tetrazolium assays rely on reduction of a dye to a coloured formazan, in cell work by metabolically active cells.
The test system of another series is T47D. The series is described as follows: Antiproliferative activity against human T47D cells assessed as inhibition of cell growth by MTT assay. The class given is functional, cell-based.
Series [2] has as its system MDA-MB-231. The series is described as follows: Antiproliferative activity against human MDA-MB-231 cells assessed as inhibition of cell growth by MTT assay. The class given is functional, cell-based.
Series [3] in a line: Cytotoxicity against human L02 cells assessed as inhibition of cell growth by MTT assay. The class given is toxicity, cell-based.
Another series has as its system MDA-MB-468. The series is described as follows: Antiproliferative activity against human MDA-MB-468 cells assessed as inhibition of cell growth by MTT assay. The class given is functional, cell-based.
The subject of series [4] is BT-549. Briefly: Antiproliferative activity against human BT-549 cells assessed as inhibition of cell growth by MTT assay. It is filed as functional, cell-based.
A short description of series [5]: Cytotoxicity against HEK293T cells assessed as inhibition of cell growth by MTT assay. The class given is toxicity, cell-based, HEK-293T. The following applies: human.
A further series has as its system MDA-MB-436. The series is described as follows: cells. The conditions noted are these: Homo sapiens.
Series [6] has as its system MDA-MB-231. Briefly: cells. The conditions noted are these: Homo sapiens.
The test system of series [7] is BT-549. The series is described as follows: cells. The conditions noted are these: Homo sapiens.

pIC50: −log10 of the molar value. Where only a bound is given, the exact number is not on record here.

Usually pIC50 stands for −log10 of the IC50, conventionally taken in molar units.

As for `CCOc1cc(/C=N/O)ccc1OCC#CC1c2c(cc3c(c2OC)OCO3)CCN1C` (stereo not given), the pIC50 in series [1] was 4.45; with T47D it was 4.28; in the series with MDA-MB-231 [2], 5.21; in series [3], less than 4.00; with MDA-MB-468, 5.13; with BT-549 [4] it was 4.90. Besides, the pIC50 in series [5] is less than 4.00.
With `COc1cc(F)ccc1-c1ncnc(Nc2cccc(C[S@](C)(=N)=O)c2)n1` [ATUVECICLIB], the pIC50 in the series on MDA-MB-436 is 6.20; in the series with MDA-MB-231 [6] it was 5.88; in the series on BT-549 [7], 5.70.
